Assay [1] has as its system human non-small cell lung tumor cell line (A549) xenotopic tumor. As to the kind of experiment: Tumor volume in xenotopic tumor model (caliper measurement). The format is in vivo, mice (SCID). As to conditions: 0.5 mg/kg i.p. twice a week; end-point 1.5 weeks after initial treatment; vs saline/PBS control. How it is done:
A tumor model can be generated by inoculating human non-small cell lung tumor cell line (A549 from ATCC, Inc.) subcutaneously in immunodeficient mice (SCID). SCID male mice (6-8 weeks old from Charles River Inc.) are inoculated subcutaneously in the lower back with a suspension of 1×10^6 human lung tumor cells (A549) in 0.2 ml of PBS. All mice are fed normal chow diet throughout the duration of the experiment. All mice weights are measured throughout the experiment. Tumor size is measured with calipers twice-a-week and tumor volume is calculated using the formula Length^2×Width×0.52. All mice are randomized into two treatment groups (approximately 10 mice per group) when the median tumor volume reaches approximately 500 mm^3. The treatment groups can be treated according to the following schedule using intraperitoneal (i.p.) administration of either a control composition or an anti-angiogenic compound. […]
(§1) Xenotopic mouse models obtained as described in Example 2 were treated with either a control solution of saline/PBS or an anti-angiogenic preparation of Avastin® at 0.5 mg/kg/i.p. as described above. At the end-point, vascular casts were prepared as described in Example 3 above and analyzed for two treated mice (both treated with Avastin® at 0.5 mg/kg/i.p.) and one control mouse. […]

Assay [2] has the same test system. As to the kind of experiment: Vascular cast micro-CT analysis of blood vessel diameter distribution in xenotopic tumor model. As to conditions: 0.5 mg/kg i.p., vascular casts. Type of assay: in vivo, mice (SCID). How it is done:
A tumor model can be generated by inoculating human non-small cell lung tumor cell line (A549 from ATCC, Inc.) subcutaneously in immunodeficient mice (SCID). SCID male mice (6-8 weeks old from Charles River Inc.) are inoculated subcutaneously in the lower back with a suspension of 1×10^6 human lung tumor cells (A549) in 0.2 ml of PBS. All mice are fed normal chow diet throughout the duration of the experiment. All mice weights are measured throughout the experiment. Tumor size is measured with calipers twice-a-week and tumor volume is calculated using the formula Length^2×Width×0.52. All mice are randomized into two treatment groups (approximately 10 mice per group) when the median tumor volume reaches approximately 500 mm^3. The treatment groups can be treated according to the following schedule using intraperitoneal (i.p.) administration of either a control composition or an anti-angiogenic compound. For example, different levels of an anti-angiogenic compound can be used and the results compared to a control group that is not treated with an anti-angiogenic compound (e.g., Avastin® available from Genentech, South San Francisco, Calif.). For example:
At the end-point, all mice are anesthetized and systemically perfused with a casting agent.
Perfusion with a casting agent, Mercox (available from Ladd Research, Williston, Vt.) can be performed as follows. An initial anticoagulation step for each animal is performed using an i.v. injection of heparin (10,000 U/ml, 0.3 cc/mouse). After 30 minutes, the animals are anesthetized. Each animal's heart is cannulated and the animal perfused with warm physiological saline at physiological pressure (with an open vein draining the organ or with an open vena cava). Perfusion is continued until the organ or animal is clear of blood. Mercox monomer is filtered through a 0.5 μm filter and a casting resin is prepared by mixing 8 ml Mercox, 2 ml methylmethacrylate, and 0.3 ml catalyst. The resin is infused through the same cannula until the onset of polymerization (the resin changes color to brown and emits heat, ˜10 min). The organ or animal is carefully immersed in a 60° C. water bath for 2 hours (or overnight in a sealed container). […] The resulting cast can be analyzed to identify one or more structural characteristics of interest.
as §1

“Avastin®: known monoclonal antibody against vascular endothelial growth factor (VEGF), angiogenesis inhibitor available from Genentech”: the “Mean tumor volumes, treated vs control group at the end of the experiment” value in assay [1] is recorded as “did not differ significantly”. In assay [2] (treated vs control animals), the “Vessel population ratio between large (approximately 147-161 μm) and middle (approximately 33-77 μm) size vessels (FIG. 3)” value is recorded as “decreased”; the “Vessel population ratio between small (approximately 21-35 μm) and middle (approximately 35-49 μm) size vessels (FIG. 2)” value is listed as “decreased”. The “Percentage of middle diameter sized vessels in treated tumors vs untreated tumors (FIG. 1)” value in assay [2] (two treated mice vs one control mouse) is reported as “higher percentage”. In addition, the “Reduction in small diameter sized vessels in treated tumors vs untreated tumors (FIG. 1)” value in assay [2] (two treated mice vs one control mouse, bins 13.8 μm wide) amounted to 20%.

The values above are taken from patent US20090328239A1, “BLOOD VESSEL IMAGING AND USES THEREFOR” (Bio Tree Systems, Inc., priority 2006, published 2009).
